Tested on: 874868-142-R-J2-PDC complex spheroids, growth % test/control
Experiment: Anticancer human tumor 874868-142-R-J2-PDC patient-derived head and neck squamous carcinoma cell line growth inhibition [CLK]
Conditions: for IC50: curve of first compound; for viability, T/C: stronger effect = lower value
Method in brief: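 Patient-derived tumor cells grown as complex spheroids with HUVEC endothelial cells and mesenchymal stem cells, treated with drug combinations. Concentrations descend in half-log steps from near clinical Cmax, or from 10 microM if Cmax unknown.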
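Note: spheroids exposed to the compounds for 7 days.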
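Throughout, for viability, T/C: 100% = DMSO vehicle control viability.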

Q: With `CC1COCCN1c1cc(C2(S(C)(=N)=O)CC2)nc(-c2ccnc3[nH]ccc23)n1` (centres undefined) + CNC(=O)c1ccc(Nc2nc(OC3CCCC3)c3c(-c4ccc5nc(C)oc5c4)c[nH]c3n2)c(OC)c1 as the compound, how does the IC50 (second compound 0.0316 µM) read?
A: Its IC50 is 5960 nM.

Q: And the IC50 (second compound 0.1 µM)?
A: The IC50 was 2860 nM.

Q: And the IC50 (second compound 0.316 µM)?
A: The IC50 was 404 nM.

Q: And the IC50 (second compound 1 µM)?
A: The IC50 was less than 31.6 nM.

Q: And the IC50 (second compound 3.16 µM)?
A: The IC50 was less than 31.6 nM.

Q: What about the IC50 (second compound 10 µM) of the same compound?
A: The IC50 was less than 31.6 nM.

Q: What about the viability, T/C (second compound 0.0316 µM, first compound 0.0316 µM) of the same compound?
A: The viability, T/C was 125%.

Q: And the viability, T/C (second compound 0.0316 µM, first compound 0.1 µM)?
A: The viability, T/C was 96.2%.

Q: What about the viability, T/C (second compound 0.0316 µM, first compound 0.316 µM) of the same compound?
A: Its viability, T/C is 91.9%.

Q: What about the viability, T/C (second compound 0.0316 µM, first compound 1 µM) of the same compound?
A: The viability, T/C was 69.8%.

Q: What about the viability, T/C (second compound 0.0316 µM, first compound 3.16 µM) of the same compound?
A: Its viability, T/C is 53.9%.

Q: What about the viability, T/C (second compound 0.0316 µM, first compound 10 µM) of the same compound?
A: The viability, T/C was 45.9%.

Q: And the viability, T/C (second compound 0.1 µM, first compound 0.0316 µM)?
A: Its viability, T/C is 101%.

Q: What about the viability, T/C (second compound 0.1 µM, first compound 0.1 µM) of the same compound?
A: Its viability, T/C is 79.1%.

Q: And the viability, T/C (second compound 0.1 µM, first compound 0.316 µM)?
A: Its viability, T/C is 73.1%.

Q: And the viability, T/C (second compound 0.1 µM, first compound 1 µM)?
A: The viability, T/C was 55%.

Q: What about the viability, T/C (second compound 0.1 µM, first compound 3.16 µM) of the same compound?
A: The viability, T/C was 54.8%.

Q: What about the viability, T/C (second compound 0.1 µM, first compound 10 µM) of the same compound?
A: The viability, T/C was 39%.

Q: And the viability, T/C (second compound 0.316 µM, first compound 0.0316 µM)?
A: The viability, T/C was 51.2%.

Q: What about the viability, T/C (second compound 0.316 µM, first compound 0.1 µM) of the same compound?
A: Its viability, T/C is 53.8%.

Q: What about the viability, T/C (second compound 0.316 µM, first compound 0.316 µM) of the same compound?
A: The viability, T/C was 53%.

Q: And the viability, T/C (second compound 0.316 µM, first compound 1 µM)?
A: The viability, T/C was 40.2%.

Q: What about the viability, T/C (second compound 0.316 µM, first compound 3.16 µM) of the same compound?
A: Its viability, T/C is 37.7%.

Q: And the viability, T/C (second compound 0.316 µM, first compound 10 µM)?
A: Its viability, T/C is 35.6%.

Q: And the viability, T/C (second compound 1 µM, first compound 0.0316 µM)?
A: Its viability, T/C is 44.7%.

Q: And the viability, T/C (second compound 1 µM, first compound 0.1 µM)?
A: The viability, T/C was 47.6%.

Q: What about the viability, T/C (second compound 1 µM, first compound 0.316 µM) of the same compound?
A: The viability, T/C was 50.8%.

Q: And the viability, T/C (second compound 1 µM, first compound 1 µM)?
A: The viability, T/C was 35%.

Q: And the viability, T/C (second compound 1 µM, first compound 3.16 µM)?
A: The viability, T/C was 21.8%.

Q: What about the viability, T/C (second compound 1 µM, first compound 10 µM) of the same compound?
A: Its viability, T/C is 23.1%.

Q: And the viability, T/C (second compound 3.16 µM, first compound 0.0316 µM)?
A: The viability, T/C was 42.5%.

Q: What about the viability, T/C (second compound 3.16 µM, first compound 0.1 µM) of the same compound?
A: The viability, T/C was 46.5%.

Q: And the viability, T/C (second compound 3.16 µM, first compound 0.316 µM)?
A: The viability, T/C was 44.4%.

Q: And the viability, T/C (second compound 3.16 µM, first compound 1 µM)?
A: Its viability, T/C is 34.9%.

Q: And the viability, T/C (second compound 3.16 µM, first compound 3.16 µM)?
A: Its viability, T/C is 34.6%.

Q: And the viability, T/C (second compound 3.16 µM, first compound 10 µM)?
A: The viability, T/C was 27.8%.

Q: What about the viability, T/C (second compound 10 µM, first compound 0.0316 µM) of the same compound?
A: The viability, T/C was 44.1%.

Q: What about the viability, T/C (second compound 10 µM, first compound 0.1 µM) of the same compound?
A: Its viability, T/C is 37.9%.

Q: And the viability, T/C (second compound 10 µM, first compound 0.316 µM)?
A: Its viability, T/C is 41.7%.

Q: What about the viability, T/C (second compound 10 µM, first compound 1 µM) of the same compound?
A: The viability, T/C was 29.6%.

Q: And the viability, T/C (second compound 10 µM, first compound 3.16 µM)?
A: Its viability, T/C is 26.6%.

Q: What about the viability, T/C (second compound 10 µM, first compound 10 µM) of the same compound?
A: Its viability, T/C is 17.2%.

Q: How did the IC50 (second compound 0.0316 µM) turn out when `NC(=O)C(=Cn1cnc(-c2cc(C(F)(F)F)cc(C(F)(F)F)c2)n1)c1cncnc1` + CNC(=O)c1ccc(Nc2nc(OC3CCCC3)c3c(-c4ccc5nc(C)oc5c4)c[nH]c3n2)c(OC)c1 was run?
A: Its IC50 is 31.3 nM.

Q: And the IC50 (second compound 0.1 µM)?
A: Its IC50 is 21.3 nM.

Q: And the IC50 (second compound 0.316 µM)?
A: The IC50 was less than 9.49 nM.

Q: And the IC50 (second compound 1 µM)?
A: Its IC50 is less than 9.49 nM.

Q: What about the IC50 (second compound 3.16 µM) of the same compound?
A: The IC50 was less than 9.49 nM.

Q: And the IC50 (second compound 10 µM)?
A: The IC50 was less than 9.49 nM.

Q: What about the viability, T/C (second compound 0.0316 µM, first compound 0.00949 µM) of the same compound?
A: The viability, T/C was 70.8%.

Q: And the viability, T/C (second compound 0.0316 µM, first compound 0.03 µM)?
A: Its viability, T/C is 49.3%.

Q: What about the viability, T/C (second compound 0.0316 µM, first compound 0.0949 µM) of the same compound?
A: The viability, T/C was 28.2%.

Q: And the viability, T/C (second compound 0.0316 µM, first compound 0.3 µM)?
A: Its viability, T/C is 6.41%.

Q: And the viability, T/C (second compound 0.0316 µM, first compound 0.949 µM)?
A: The viability, T/C was 4.32%.

Q: And the viability, T/C (second compound 0.0316 µM, first compound 3 µM)?
A: The viability, T/C was 4.58%.

Q: And the viability, T/C (second compound 0.1 µM, first compound 0.00949 µM)?
A: Its viability, T/C is 66.4%.

Q: What about the viability, T/C (second compound 0.1 µM, first compound 0.03 µM) of the same compound?
A: Its viability, T/C is 40.8%.

Q: And the viability, T/C (second compound 0.1 µM, first compound 0.0949 µM)?
A: The viability, T/C was 27.1%.

Q: What about the viability, T/C (second compound 0.1 µM, first compound 0.3 µM) of the same compound?
A: Its viability, T/C is 4.57%.

Q: What about the viability, T/C (second compound 0.1 µM, first compound 0.949 µM) of the same compound?
A: The viability, T/C was 3.53%.

Q: And the viability, T/C (second compound 0.1 µM, first compound 3 µM)?
A: The viability, T/C was 3.49%.

Q: And the viability, T/C (second compound 0.316 µM, first compound 0.00949 µM)?
A: Its viability, T/C is 45.8%.

Q: What about the viability, T/C (second compound 0.316 µM, first compound 0.03 µM) of the same compound?
A: Its viability, T/C is 33.4%.

Q: And the viability, T/C (second compound 0.316 µM, first compound 0.0949 µM)?
A: Its viability, T/C is 17.1%.

Q: And the viability, T/C (second compound 0.316 µM, first compound 0.3 µM)?
A: The viability, T/C was 2.51%.

Q: And the viability, T/C (second compound 0.316 µM, first compound 0.949 µM)?
A: The viability, T/C was 4.77%.

Q: And the viability, T/C (second compound 0.316 µM, first compound 3 µM)?
A: Its viability, T/C is 2.89%.

Q: What about the viability, T/C (second compound 1 µM, first compound 0.00949 µM) of the same compound?
A: The viability, T/C was 34%.

Q: And the viability, T/C (second compound 1 µM, first compound 0.03 µM)?
A: The viability, T/C was 19.8%.

Q: And the viability, T/C (second compound 1 µM, first compound 0.0949 µM)?
A: The viability, T/C was 14.9%.

Q: What about the viability, T/C (second compound 1 µM, first compound 0.3 µM) of the same compound?
A: Its viability, T/C is 2.12%.

Q: What about the viability, T/C (second compound 1 µM, first compound 0.949 µM) of the same compound?
A: The viability, T/C was 1%.

Q: And the viability, T/C (second compound 1 µM, first compound 3 µM)?
A: The viability, T/C was 4.53%.

Q: What about the viability, T/C (second compound 3.16 µM, first compound 0.00949 µM) of the same compound?
A: The viability, T/C was 35.6%.

Q: What about the viability, T/C (second compound 3.16 µM, first compound 0.03 µM) of the same compound?
A: The viability, T/C was 19.2%.

Q: And the viability, T/C (second compound 3.16 µM, first compound 0.0949 µM)?
A: The viability, T/C was 12.4%.

Q: What about the viability, T/C (second compound 3.16 µM, first compound 0.3 µM) of the same compound?
A: The viability, T/C was 1.32%.

Q: And the viability, T/C (second compound 3.16 µM, first compound 0.949 µM)?
A: The viability, T/C was 6.47%.

Q: What about the viability, T/C (second compound 3.16 µM, first compound 3 µM) of the same compound?
A: The viability, T/C was 0.18%.

Q: And the viability, T/C (second compound 10 µM, first compound 0.00949 µM)?
A: The viability, T/C was 36%.

Q: And the viability, T/C (second compound 10 µM, first compound 0.03 µM)?
A: The viability, T/C was 18.8%.

Q: And the viability, T/C (second compound 10 µM, first compound 0.0949 µM)?
A: Its viability, T/C is 3.67%.

Q: What about the viability, T/C (second compound 10 µM, first compound 0.3 µM) of the same compound?
A: Its viability, T/C is 1.02%.

Q: What about the viability, T/C (second compound 10 µM, first compound 0.949 µM) of the same compound?
A: Its viability, T/C is 3.87%.

Q: And the viability, T/C (second compound 10 µM, first compound 3 µM)?
A: Its viability, T/C is 4.53%.
